According to paper PMC4252478 (Biochemical pharmacology, 2014):
Changes are numbered by the printed parent chain. One block for each molecule: values may come before it.

Assays:
[1] = target: T1, hPXR (Homo sapiens, UniProt O75469); assay: CYP3A4 promoter luciferase reporter assay in HepG2 cells; conditions: HepG2, LS180 and LS174T cells, 24 h
T1 sequence (O75469 1-434): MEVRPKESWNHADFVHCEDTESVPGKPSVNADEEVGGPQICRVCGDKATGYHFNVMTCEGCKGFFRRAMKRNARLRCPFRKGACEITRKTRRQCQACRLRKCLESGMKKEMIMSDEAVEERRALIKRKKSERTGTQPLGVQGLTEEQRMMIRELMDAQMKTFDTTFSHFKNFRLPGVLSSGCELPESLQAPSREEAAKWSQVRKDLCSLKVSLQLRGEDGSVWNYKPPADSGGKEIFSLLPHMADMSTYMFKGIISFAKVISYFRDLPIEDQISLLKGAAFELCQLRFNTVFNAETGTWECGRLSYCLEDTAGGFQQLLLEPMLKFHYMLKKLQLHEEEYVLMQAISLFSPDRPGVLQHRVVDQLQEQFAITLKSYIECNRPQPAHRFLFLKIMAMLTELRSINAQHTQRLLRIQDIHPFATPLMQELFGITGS

[2] = system: CYP3A4 and MDR1 expression; assay: CYP3A4 and MDR1 expression in human primary hepatocytes; type: cell-based; conditions: 48-h treatment, two donors
[3] = system: hPXR mutants; type: cell-based, human; conditions: 21 alanine mutants, various MET concentrations, HepG2
[4] = system: CYP3A4 and MDR1 expression; assay: CYP3A4 and MDR1 expression in LS180 and LS174T intestine cells; type: cell-based, human; conditions: Western blot
[5] = system: HepG2, LS180, and LS174T cells; assay: Cell viability assay; type: cell-based, human; conditions: 1.7 nM to 56 μM
[6] = target: hPXR and SRC-1 interaction (Homo sapiens, UniProt O75469); assay: Mammalian two-hybrid assay in HepG2 cells; type: cell-based; conditions: 24 h, 5 μM rifampicin, 5, 10 or 20 μM MET
[7] = target: T2, wild-type hPXR (Homo sapiens, UniProt O75469); assay: CYP3A4 promoter luciferase reporter assay in HepG2 cells, wild-type hPXR; type: cell-based; conditions: HepG2, 24 h, relative luciferase units (a.u.), DMSO 0.40
T2 sequence (O75469 1-434): T1 sequence (O75469 1-434)

[8] = target: T3, wild-type hPXR (CYP3A4 promoter) (Homo sapiens, UniProt O75469); assay: as above; type: cell-based; conditions: human
T3 sequence (O75469 1-434): T1 sequence (O75469 1-434)

[9] = target: T1, hPXR; conditions: HEK293T cells, 24 h; for PXR activation in the screen: 28 μM
[10] = system: human carbonic anhydrase isoforms I and III; conditions: ref [31]; cited from earlier work
[11] = system: human carbonic anhydrase isoforms VII, XII, and XIII; conditions: ref [31]; cited from earlier work
[12] = target: T4, hPXR R410A (Homo sapiens, UniProt O75469, R410A); assay: CYP3A4 promoter luciferase reporter assay in HepG2 cells, hPXR mutant R410A; type: cell-based; conditions: HepG2, 24 h, relative luciferase units (a.u.), DMSO 3.28
T4 sequence (O75469 1-434 R410A): T1 sequence (O75469 1-434) with R410A

[13] = target: T5, hPXR R410A mutant (CYP3A4 promoter) (Homo sapiens, UniProt O75469, R410A); assay: as above; type: cell-based; conditions: human
T5 sequence (O75469 1-434 R410A): T1 sequence (O75469 1-434) with R410A

[14] = target: T6, hPXR ligand-binding domain (Homo sapiens, UniProt O75469); assay: LanthaScreen TR-FRET PXR competitive ligand-binding assay; conditions: 1.75 μM, compared with vehicle control
T6 sequence (O75469 146-433 limits assumed): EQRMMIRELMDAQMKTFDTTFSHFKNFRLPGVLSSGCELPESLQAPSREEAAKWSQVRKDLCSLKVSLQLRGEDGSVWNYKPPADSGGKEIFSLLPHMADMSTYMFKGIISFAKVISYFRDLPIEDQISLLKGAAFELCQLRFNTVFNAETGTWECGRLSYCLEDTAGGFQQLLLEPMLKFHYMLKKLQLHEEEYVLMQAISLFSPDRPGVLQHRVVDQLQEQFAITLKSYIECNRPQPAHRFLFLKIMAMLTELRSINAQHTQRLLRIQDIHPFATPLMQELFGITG

Chain of hPXR and SRC-1 interaction (Q15788 whole entry partner, one chain of several): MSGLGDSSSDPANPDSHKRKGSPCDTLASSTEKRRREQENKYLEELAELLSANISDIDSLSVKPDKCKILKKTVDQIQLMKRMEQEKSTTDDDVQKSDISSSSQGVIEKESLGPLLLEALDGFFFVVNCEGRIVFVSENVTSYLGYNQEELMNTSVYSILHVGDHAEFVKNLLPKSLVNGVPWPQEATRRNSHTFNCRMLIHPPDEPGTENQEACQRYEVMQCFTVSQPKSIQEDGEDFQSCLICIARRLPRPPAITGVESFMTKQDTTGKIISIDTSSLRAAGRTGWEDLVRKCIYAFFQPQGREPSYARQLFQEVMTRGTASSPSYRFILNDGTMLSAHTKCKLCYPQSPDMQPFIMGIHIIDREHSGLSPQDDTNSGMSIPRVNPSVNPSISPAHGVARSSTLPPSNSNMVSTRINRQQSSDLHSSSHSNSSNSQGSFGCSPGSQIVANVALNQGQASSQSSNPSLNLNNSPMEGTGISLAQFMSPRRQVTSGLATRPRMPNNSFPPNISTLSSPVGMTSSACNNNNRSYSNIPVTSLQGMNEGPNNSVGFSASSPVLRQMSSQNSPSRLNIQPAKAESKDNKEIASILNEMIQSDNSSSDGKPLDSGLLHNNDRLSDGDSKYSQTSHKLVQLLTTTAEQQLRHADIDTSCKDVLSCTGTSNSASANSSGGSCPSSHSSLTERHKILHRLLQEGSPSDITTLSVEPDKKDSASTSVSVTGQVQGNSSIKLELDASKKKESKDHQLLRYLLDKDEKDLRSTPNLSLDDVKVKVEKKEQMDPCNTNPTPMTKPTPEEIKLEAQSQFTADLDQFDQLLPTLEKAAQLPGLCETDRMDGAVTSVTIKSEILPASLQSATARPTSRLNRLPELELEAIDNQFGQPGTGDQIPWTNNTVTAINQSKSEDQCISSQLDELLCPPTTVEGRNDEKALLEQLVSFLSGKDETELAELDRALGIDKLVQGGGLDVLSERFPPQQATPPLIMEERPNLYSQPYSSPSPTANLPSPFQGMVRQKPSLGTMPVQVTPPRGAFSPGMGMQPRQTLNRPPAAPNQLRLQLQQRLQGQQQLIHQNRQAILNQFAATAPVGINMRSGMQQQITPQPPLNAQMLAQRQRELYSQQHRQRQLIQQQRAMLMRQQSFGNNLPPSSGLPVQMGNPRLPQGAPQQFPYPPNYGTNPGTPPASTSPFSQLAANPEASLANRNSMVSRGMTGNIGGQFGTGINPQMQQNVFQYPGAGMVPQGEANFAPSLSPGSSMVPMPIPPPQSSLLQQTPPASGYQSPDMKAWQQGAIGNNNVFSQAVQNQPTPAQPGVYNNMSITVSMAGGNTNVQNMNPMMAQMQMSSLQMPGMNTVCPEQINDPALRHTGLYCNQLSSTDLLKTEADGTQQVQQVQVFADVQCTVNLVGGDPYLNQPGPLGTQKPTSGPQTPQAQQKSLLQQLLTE

PXR activation in the screen [9]: PXR activation
SMILES: O=C1Nc2ccc(Cl)cc2[C@@](C#CC2CC2)(C(F)(F)F)O1 [efavirenz]

activation of PXR-regulated CYP3A4 promoter activity [1]: inactive
SMILES: NS(=O)(=O)c1cc2c(cc1Cl)NCNS2(=O)=O [hydrochlorothiazide]

PXR activation in the screen [9]: PXR activation
SMILES: CC(C)(O)c1ccccc1CC[C@@H](SCC1(CC(=O)O)CC1)c1cccc(/C=C/c2ccc3ccc(Cl)cc3n2)c1 [montelukast]

PXR activation in the screen [9]: PXR activation
SMILES: CCCCC1C(=O)N(c2ccccc2)N(c2ccccc2)C1=O [phenylbutazone]

activation of PXR-regulated CYP3A4 promoter activity [1]: does not possess PXR-activating activity
SMILES: Cc1cccc(C)c1NC(=O)c1cc(S(N)(=O)=O)c(Cl)cc1O [xipamide]

The remaining lines, values behind:

SMILES: Cc1ccccc1N1C(=O)c2cc(S(N)(=O)=O)c(Cl)cc2NC1C (centres unmarked) [Metolazone]
activation of PXR-regulated CYP3A4 promoter activity [1]: activator of PXR activity | expression of CYP3A4 and MDR1 mRNA and protein [2]: induced the expression of CYP3A4 and MDR1 mRNA and protein | CYP3A4 promoter activity with hPXR mutants [3]: increased CYP3A4 promoter activity substantially for all PXR mutants except L240A, F281A, and F420A | CYP3A4 and MDR1 protein expression [4]: induced CYP3A4 and MDR1 protein expression | cytotoxicity [5]: not significantly cytotoxic even at high concentration | interaction between hPXR and SRC-1 [6]: substantially increased the interaction between hPXR and SRC-1 | CYP3A4 promoter activity ([7]; 10 μM MET): 3.93 | CYP3A4 promoter activity ([7]; 20 μM MET): 4.22 | fold induction at 24 h, 10 μM [8]: 9.83 | fold induction at 24 h, 20 μM [8]: 10.6 | activation of the CYP3A4-luc reporter ([9]; final compound concentration 28 μM, DMSO set as 0% and rifampicin at 5 μM set as 100%): 182% | inhibition of carbonic anhydrase [10]: weak inhibitor | inhibition of carbonic anhydrase [11]: very potent | CYP3A4 promoter activity ([12]; 10 μM MET): 6.43 | CYP3A4 promoter activity ([12]; 20 μM MET): 4.92 | fold induction at 24 h, 10 μM [13]: 1.96 | fold induction at 24 h, 20 μM [13]: 1.5 | tracer binding to hPXR-LBD [14]: decreased tracer binding to hPXR-LBD substantially

SMILES: NS(=O)(=O)c1cc2c(cc1C(F)(F)F)NC(Cc1ccccc1)NS2(=O)=O (centres unmarked) [bendroflumethiazide]
activation of PXR-regulated CYP3A4 promoter activity [1]: inactive

SMILES: NS(=O)(=O)c1cc2c(cc1Cl)N=C(CSCc1ccccc1)NS2(=O)=O [benzthiazide]
activation of PXR-regulated CYP3A4 promoter activity [1]: inactive

SMILES: NS(=O)(=O)c1cc2c(cc1Cl)NC(C1CC3C=CC1C3)NS2(=O)=O (centres unmarked) [cyclothiazide]
activation of PXR-regulated CYP3A4 promoter activity [1]: does not activate PXR
